In ChEMBL document CHEMBL1128974, “Design, synthesis and X-ray crystallographic studies of [7.3.1] and [8.3.1] macrocyclic FKBP-12 ligands” (Bioorg Med Chem Lett, 1996):

Assays:
[1] = biological target: T1, Peptidyl-prolyl cis-trans isomerase FKBP1A (Homo sapiens, UniProt P62942); test: Compound was evaluated for inhibitory activity against human FKBP-12 rotamase
[2] = biological target: T1, Peptidyl-prolyl cis-trans isomerase FKBP1A; test: Compound was evaluated for inhibitory activity against human FKBP-12 rotamase; no inhibition

T1 sequence (P62942 whole entry): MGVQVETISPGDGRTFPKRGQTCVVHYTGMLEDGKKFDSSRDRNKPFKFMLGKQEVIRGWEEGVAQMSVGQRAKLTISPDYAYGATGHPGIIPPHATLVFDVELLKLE

## COc1cc(C(=O)C(=O)N2[C@@H]3CCC[C@H]2C(=O)OCCCCOC3=O)cc(OC)c1OC
[1]
  Ki: 0.28 µM

## CCC(C)(C)C(=O)C(=O)N1[C@@H]2CCC[C@H]1C(=O)OCCCOC2=O
[1]
  Ki: 10 µM

## CCC(C)(C)C(=O)C(=O)N1[C@@H]2CCC[C@H]1C(=O)OCCCCOC2=O
[1]
  Ki: 8.3 µM

## CC(C)[C@@H]1CC[C@@H](C)[C@](O)(C(=O)C(=O)N2[C@@H]3CCC[C@H]2C(=O)OCCCOC3=O)C1
[1]
  Ki: 8.1 µM

## COc1cc(C(=O)C(=O)N2[C@@H]3CCC[C@H]2C(=O)OCC(COCc2ccccc2)COC3=O)cc(OC)c1OC (stereo not given in full)
[1]
  Ki: 1.2 µM

## COCC(C)[C@@H]1CC[C@@H](C)[C@](O)(C(=O)C(=O)N2[C@@H]3CCC[C@H]2C(=O)OCC(CO)COC3=O)C1 (stereo not given in full)
[1]
  Ki: > 50 µM

## COCC(C)[C@@H]1CC[C@@H](C)[C@](O)(C(=O)C(=O)N2[C@@H]3CCC[C@H]2C(=O)OCC(COCc2ccccc2)COC3=O)C1 (stereo not given in full)
[2]
  Ki: Not Active

## CO[C@@H](CC(C)C)[C@@H]1CC[C@@H](C)[C@](O)(C(=O)C(=O)N2[C@@H]3CCC[C@H]2C(=O)OCC(CO)COC3=O)C1 (stereo not given in full)
[2]
  Ki: Not Active

## CO[C@@H](CC(C)C)[C@@H]1CC[C@@H](C)[C@](O)(C(=O)C(=O)N2[C@@H]3CCC[C@H]2C(=O)OCC(COCc2ccccc2)COC3=O)C1 (stereo not given in full)
[2]
  Ki: Not Active

## COc1cc(C(=O)C(=O)N2[C@@H]3CCC[C@H]2C(=O)OCC(CO[Si](C)(C)C(C)(C)C)COC3=O)cc(OC)c1OC (stereo not given in full)
[1]
  Ki: 1.5 µM
